Test results published in patent US7129269B2, “Compound” (Sterix Ltd., priority 1996, dated 2006).

Legend:
[1] = target: T1, oestrone sulphatase (E1-STS) (Homo sapiens, UniProt P08842); assay: Oestrone sulphatase (E1-STS) inhibition in intact MCF-7 breast cancer cells; assay type: cell-based
T1 construct: endogenous in cells; host or cells: MCF-7 breast cancer cells
T1 sequence (P08842 22-583): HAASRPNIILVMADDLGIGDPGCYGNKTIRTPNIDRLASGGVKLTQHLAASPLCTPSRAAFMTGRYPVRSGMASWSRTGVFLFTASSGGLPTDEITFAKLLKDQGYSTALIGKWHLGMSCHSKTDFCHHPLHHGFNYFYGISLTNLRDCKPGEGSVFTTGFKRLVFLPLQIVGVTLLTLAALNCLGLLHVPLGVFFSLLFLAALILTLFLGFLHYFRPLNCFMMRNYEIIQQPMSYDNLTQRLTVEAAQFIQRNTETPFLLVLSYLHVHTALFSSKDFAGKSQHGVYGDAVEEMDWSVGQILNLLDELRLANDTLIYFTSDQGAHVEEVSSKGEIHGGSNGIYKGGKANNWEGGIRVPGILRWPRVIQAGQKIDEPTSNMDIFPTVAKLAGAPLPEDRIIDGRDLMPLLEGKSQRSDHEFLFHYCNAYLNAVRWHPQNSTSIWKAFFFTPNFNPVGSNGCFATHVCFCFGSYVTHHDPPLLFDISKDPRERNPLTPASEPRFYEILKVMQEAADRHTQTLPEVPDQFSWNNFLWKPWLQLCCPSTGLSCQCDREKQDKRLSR

oestrone sulphatase [2] = target: T2, oestrone sulphatase (Homo sapiens, UniProt P08842); assay: Oestrone sulphatase inhibition in placental microsomes; assay type: biochemical; settings: placental microsomes
T2 construct: from tissue; host or cells: placenta (microsomes, 100,000 g)
T2 sequence (P08842 22-583): T1 sequence (P08842 22-583)

aromatase = target: T3, aromatase (Homo sapiens, UniProt P11511)
T3 sequence (P11511 1-503): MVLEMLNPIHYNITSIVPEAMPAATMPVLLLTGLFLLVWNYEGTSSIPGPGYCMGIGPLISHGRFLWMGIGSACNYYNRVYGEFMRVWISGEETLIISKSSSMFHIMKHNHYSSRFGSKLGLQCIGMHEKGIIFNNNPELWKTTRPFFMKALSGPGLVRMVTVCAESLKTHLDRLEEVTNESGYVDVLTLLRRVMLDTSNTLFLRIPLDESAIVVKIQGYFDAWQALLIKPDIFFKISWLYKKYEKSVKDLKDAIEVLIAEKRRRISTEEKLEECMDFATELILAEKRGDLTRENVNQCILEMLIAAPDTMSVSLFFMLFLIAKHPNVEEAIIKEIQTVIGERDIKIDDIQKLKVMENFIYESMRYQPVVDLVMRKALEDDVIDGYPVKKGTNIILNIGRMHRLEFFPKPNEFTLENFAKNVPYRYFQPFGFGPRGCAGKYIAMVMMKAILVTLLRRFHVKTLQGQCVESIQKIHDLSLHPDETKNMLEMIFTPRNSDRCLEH

oestrone sulphatase [3] = target: T4, oestrone sulphatase (Rattus norvegicus, UniProt P15589); assay: In vivo inhibition of oestrone sulphatase activity in rat liver; settings: 24 hours after single oral dose in propylene glycol, 10 mg/Kg
T4 construct: from tissue; host or cells: rat liver
T4 sequence (P15589 20-577): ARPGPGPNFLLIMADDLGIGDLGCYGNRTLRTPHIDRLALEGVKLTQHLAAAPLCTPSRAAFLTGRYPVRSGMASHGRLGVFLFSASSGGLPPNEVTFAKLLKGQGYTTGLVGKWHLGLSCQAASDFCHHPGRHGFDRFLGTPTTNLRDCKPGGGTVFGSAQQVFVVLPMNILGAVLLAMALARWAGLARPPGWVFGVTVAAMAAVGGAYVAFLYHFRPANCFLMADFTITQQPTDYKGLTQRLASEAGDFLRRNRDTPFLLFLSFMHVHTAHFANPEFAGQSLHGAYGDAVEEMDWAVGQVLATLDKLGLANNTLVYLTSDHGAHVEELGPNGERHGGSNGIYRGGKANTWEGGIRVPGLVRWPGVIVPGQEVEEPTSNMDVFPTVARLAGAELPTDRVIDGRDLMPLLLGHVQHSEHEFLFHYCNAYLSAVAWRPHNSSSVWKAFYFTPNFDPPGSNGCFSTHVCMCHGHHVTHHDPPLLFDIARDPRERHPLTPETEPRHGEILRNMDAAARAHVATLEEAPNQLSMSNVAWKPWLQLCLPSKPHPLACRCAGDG
Procedure: FIG. 11 presents in vivo inhibition of oestrone sulphatase activity in rat liver for two isoflavones according to the present invention. […] Compounds were administered as a single 10 mg/Kg dose. Oestrone sulphatase activity was assayed in tissue samples obtained 24 h after drug administration.

| % Inhibition of sulphatase activity in MCF-7 cells ([1]; 0.1 μM) [%] | % INHIBITION Sulphatase (oestrone sulphatase [2]; 10 μM, listed as 5,7-dehydroxy flavanone-4′-sulphamate) [%] | % Inhibition of oestrone sulphatase in vivo (oestrone sulphatase [3]) [%] | SMILES | % Inhibition of sulphatase activity in MCF-7 cells ([1]; 1 μM) [%] | % Inhibition of sulphatase activity in MCF-7 cells ([1]; 10 μM) [%] | % INHIBITION Sulphatase (oestrone sulphatase [2]; 1 μM) [%] | % INHIBITION Sulphatase (oestrone sulphatase [2]; 10 μM) [%] | % Inhibition of aromatase activity in placental microsomes at 10 μM (aromatase) [%] |
| --- | --- | --- | --- | --- | --- | --- | --- | --- |
|  |  |  | NS(=O)(=O)Oc1cc(O)c2c(=O)cc(-c3ccccc3)oc2c1 [Compound 3, 5-Hydroxyflavone 7-O-sulphamate] | 4.2 ± 0.9 | 20.6 ± 1.2 | 8 | 21 | 85 |
| 30 ± 2.8 | 98 | 44.2 ± 3.8 | NS(=O)(=O)Oc1ccc(C2CC(=O)c3c(O)cc(O)cc3O2)cc1 (stereo not shown) [Compound 20, 5,7-Dihydroxyflavanone 4′-O-sulphamate] | 79 ± 1.2 | > 99 |  |  |  |
